The values that follow come from the NIST ThermoML archive (doi:10.1021/acs.jced.6b00092).

For data set [1] the following is noted: Liquid; for mass density: 298.15 K, 101.33 kPa, Vibrating tube method; for vapor or sublimation pressure / Normal boiling temperature: Ebulliometric method (Recirculating still).
Data set [2] can be described thus: refractive index (Na D-line) (dimensionless). To be noted: 298.15 K; 101.33 kPa; Liquid; Standard Abbe refractometry.

Each structure is given as a SMILES string. ± gives the expanded uncertainty stated by the source.

Turning to `CC(C)CCO` [3-methylbutan-1-ol], the mass density in data set [1] is 807.3 ± 10 kg/m3. In addition, the “vapor or sublimation pressure” value is listed as 40 ± 8 kPa in data set [1] (379.01 K), 60 ± 12 kPa in data set [1] (389.52 K) and 80 ± 16 kPa in data set [1] (397.48 K). The Normal boiling temperature in data set [1] was 130.70 ± 4 °C. Further, in data set [2], the refractive index amounted to 1.4055 ± 0.0004.

Regarding `OCCCCO` [1,4-butanediol], the mass density in data set [1] came to 1012.96 ± 10 kg/m3. Also, the “vapor or sublimation pressure” value in data set [1] (473.44 K) is 40 ± 7 kPa; in data set [1] (485.11 K) it was 60 ± 8 kPa; in data set [1] (493.78 K), 80 ± 9 kPa. Also, in data set [1], the Normal boiling temperature worked out at 227.93 ± 4 °C. Besides, the refractive index in data set [2] was 1.4447 ± 0.0004.

Consider `CC(O)CC(C)(C)O` (stereo not drawn) [2-methyl-2,4-pentanediol], for which the mass density in data set [1] was 915.6 ± 10 kg/m3. For the same compound, the “vapor or sublimation pressure” value was 40 ± 7 kPa in data set [1] (442.09 K), 60 ± 8 kPa in data set [1] (453.84 K) and 80 ± 9 kPa in data set [1] (462.67 K). Besides, the Normal boiling temperature in data set [1] came out at 197.30 ± 4 °C. The refractive index in data set [2] is recorded as 1.4265 ± 0.0004.
